Common to all, as to format: biochemical
Experiment [1] has as its target T1, recombinant human MAO-A (monoamine oxidase-A) (Homo sapiens, UniProt P21397).
T1 construct: purchased Sigma-Aldrich
T1 sequence (P21397 1-527): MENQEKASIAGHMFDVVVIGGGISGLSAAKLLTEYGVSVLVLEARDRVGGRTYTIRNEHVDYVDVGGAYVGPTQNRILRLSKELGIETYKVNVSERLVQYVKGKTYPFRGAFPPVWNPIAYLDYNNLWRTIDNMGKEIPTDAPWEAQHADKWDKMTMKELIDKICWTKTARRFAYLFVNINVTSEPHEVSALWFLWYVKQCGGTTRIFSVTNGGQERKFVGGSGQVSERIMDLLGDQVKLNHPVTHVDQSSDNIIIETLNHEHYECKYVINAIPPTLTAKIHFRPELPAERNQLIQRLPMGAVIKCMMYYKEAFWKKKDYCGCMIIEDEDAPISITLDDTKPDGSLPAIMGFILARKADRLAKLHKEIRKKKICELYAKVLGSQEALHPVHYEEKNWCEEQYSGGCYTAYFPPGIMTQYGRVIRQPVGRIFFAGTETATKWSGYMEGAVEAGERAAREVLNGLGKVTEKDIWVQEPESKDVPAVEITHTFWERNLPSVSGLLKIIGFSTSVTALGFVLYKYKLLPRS
The experiment in a line: Activity evaluation on recombinant human MAO-A (Amplex Red/HRP-coupled assay, 0.5 mM tyramine substrate). Conditions: read-out: Inhibitory Activity (IC50, nM) MAO-A. The method, boiled down: (§1)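 Enzyme was preincubated with compounds (8-point 1:3 series, final DMSO <1%) 30 min at 37 °C in 50 mM sodium phosphate pH 7.4, then given 200 uM Amplex Red and 1 U/mL HRP with substrate. H2O2-derived resorufin fluorescence (ex 544/em 590 nm) was followed over 1–2 h; IC50 came from 4-parameter logistic fits of signal-rate inhibition versus DMSO control.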

The target in experiment [2] is T2, recombinant human DAO (diamine oxidase) (Homo sapiens, UniProt P19801).
T2 construct: purchased R&D systems
T2 sequence (P19801 20-751): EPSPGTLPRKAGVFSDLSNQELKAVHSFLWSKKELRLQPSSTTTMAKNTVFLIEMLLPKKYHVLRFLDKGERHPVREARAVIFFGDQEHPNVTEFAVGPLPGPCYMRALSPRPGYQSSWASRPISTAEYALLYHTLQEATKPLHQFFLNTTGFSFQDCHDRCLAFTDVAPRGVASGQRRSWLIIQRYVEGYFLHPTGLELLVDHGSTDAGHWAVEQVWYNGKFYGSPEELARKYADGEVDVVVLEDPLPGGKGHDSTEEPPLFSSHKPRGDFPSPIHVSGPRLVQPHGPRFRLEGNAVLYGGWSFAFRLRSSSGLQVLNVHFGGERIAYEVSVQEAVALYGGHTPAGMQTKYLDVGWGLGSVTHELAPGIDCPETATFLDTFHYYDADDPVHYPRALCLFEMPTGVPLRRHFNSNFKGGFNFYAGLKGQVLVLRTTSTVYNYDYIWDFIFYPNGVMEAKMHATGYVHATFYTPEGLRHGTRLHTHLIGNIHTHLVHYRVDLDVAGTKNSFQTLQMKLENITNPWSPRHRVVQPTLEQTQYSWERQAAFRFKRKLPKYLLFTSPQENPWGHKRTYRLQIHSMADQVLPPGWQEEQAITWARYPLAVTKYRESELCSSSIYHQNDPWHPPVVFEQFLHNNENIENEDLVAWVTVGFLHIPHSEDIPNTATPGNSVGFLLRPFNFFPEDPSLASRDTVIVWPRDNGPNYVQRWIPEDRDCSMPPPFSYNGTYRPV
The experiment can be described thus: Activity evaluation on recombinant human DAO (Amplex Red/HRP-coupled assay, 1 mM putrescine substrate). Conditions: read-out: Inhibitory Activity (IC50, nM) DAO. The method, boiled down:
as §1

For another experiment, the target named is T3, recombinant human VAP-1 (Homo sapiens, UniProt Q16853).
T3 construct: purchased R&D systems
T3 sequence (Q16853 1-763): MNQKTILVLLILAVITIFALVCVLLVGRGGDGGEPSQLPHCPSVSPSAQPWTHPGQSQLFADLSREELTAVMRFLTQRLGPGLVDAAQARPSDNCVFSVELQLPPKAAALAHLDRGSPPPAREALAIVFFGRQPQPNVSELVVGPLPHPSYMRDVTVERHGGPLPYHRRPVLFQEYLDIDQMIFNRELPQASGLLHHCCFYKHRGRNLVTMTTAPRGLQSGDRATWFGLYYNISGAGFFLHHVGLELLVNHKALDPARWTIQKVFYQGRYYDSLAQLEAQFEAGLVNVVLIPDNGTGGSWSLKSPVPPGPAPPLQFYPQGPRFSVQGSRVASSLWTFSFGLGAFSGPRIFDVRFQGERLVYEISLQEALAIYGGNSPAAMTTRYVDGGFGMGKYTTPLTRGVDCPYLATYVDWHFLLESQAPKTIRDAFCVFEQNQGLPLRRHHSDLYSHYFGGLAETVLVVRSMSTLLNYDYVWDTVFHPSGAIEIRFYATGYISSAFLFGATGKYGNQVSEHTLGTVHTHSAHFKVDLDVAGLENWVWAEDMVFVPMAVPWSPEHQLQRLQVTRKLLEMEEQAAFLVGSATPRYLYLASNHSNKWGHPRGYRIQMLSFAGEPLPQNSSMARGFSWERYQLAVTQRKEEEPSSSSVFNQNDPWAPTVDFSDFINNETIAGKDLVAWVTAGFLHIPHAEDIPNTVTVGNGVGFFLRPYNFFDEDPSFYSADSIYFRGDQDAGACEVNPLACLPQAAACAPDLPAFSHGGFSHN
The experiment can be described thus: Activity evaluation on recombinant human VAP-1 (Amplex Red/HRP-coupled hydrogen peroxide assay, benzylamine substrate). The following applies: read-out: Inhibitory Activity (IC50, nM) human VAP-1. The method, boiled down:
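Recombinant human VAP-1 in 50 mM sodium phosphate pH 7.4 preincubated 30 min at 37 °C with compound (8-point 1:3 series, <1% DMSO), then 1 mM benzylamine, 200 uM Amplex Red, 1 U/mL HRP added. H2O2-derived resorufin fluorescence (ex 544/em 590) followed 1–2 h; IC50 from four-parameter fit of rate inhibition.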

In experiment [3] the target is T4, recombinant human MAO-B (monoamine oxidase-B) (Homo sapiens, UniProt P27338).
T4 construct: purchased Sigma-Aldrich
T4 sequence (P27338 1-520): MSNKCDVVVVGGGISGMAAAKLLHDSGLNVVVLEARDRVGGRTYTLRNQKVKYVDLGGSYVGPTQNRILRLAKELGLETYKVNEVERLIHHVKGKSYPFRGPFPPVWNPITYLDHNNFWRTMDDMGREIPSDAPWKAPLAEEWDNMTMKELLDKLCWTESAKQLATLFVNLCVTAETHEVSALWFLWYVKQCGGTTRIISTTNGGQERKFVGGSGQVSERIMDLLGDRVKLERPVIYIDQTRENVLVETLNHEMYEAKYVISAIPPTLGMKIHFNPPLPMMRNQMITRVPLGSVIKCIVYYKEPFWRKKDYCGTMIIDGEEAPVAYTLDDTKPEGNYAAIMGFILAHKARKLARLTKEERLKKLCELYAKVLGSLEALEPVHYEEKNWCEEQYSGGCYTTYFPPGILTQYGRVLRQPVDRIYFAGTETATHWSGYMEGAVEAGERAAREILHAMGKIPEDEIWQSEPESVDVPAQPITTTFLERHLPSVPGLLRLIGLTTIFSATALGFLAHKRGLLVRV
The experiment can be described thus: Activity evaluation on recombinant human MAO-B (Amplex Red/HRP-coupled assay, 1 mM benzylamine substrate). Conditions: read-out: Inhibitory Activity (IC50, nM) MAO-B. In outline: as §1

[4] abbreviates: recombinant human VAP-1, benzylamine substrate.
The mark [5] stands for this setting: recombinant human VAP-1, 30 min preincubation at 37° C., 1 mM benzylamine.

Each structure is given as a SMILES string. Where a name gives a salt, the structure may show the parent alone. Read-outs that look alike come from different tables or passages of the source. Where only a bound is given, the exact number is not on record here.

As a reminder, the IC50 is the point on the concentration scale where inhibition reaches its midpoint.

As for `Cc1cc(-c2cnn(C(F)F)c2)cnc1-n1cnn(CC(CN)=C(F)F)c1=O` [Example 251, 2-[2-(aminomethyl)-3,3-difluoro-allyl]-4-[5-[1-(difluoromethyl)pyrazol-4-yl]-3-methyl-2-pyridyl]-1,2,4-triazol-3-one Trifluoroacetate], the half-maximal inhibitory concentration (IC50) in experiment [1] (0.5 mM tyramine substrate) was > 100000 nM; in experiment [2] (1 mM putrescine substrate), 19000 nM; on recombinant human VAP-1 (setting [4]) it was 1.5 nM; in experiment [3] (1 mM benzylamine substrate), 18000 nM.
For `CN1C(=O)CCc2cc(-c3cccc(Cn4cnn(CC(CN)=C(F)F)c4=O)c3)ccc21` [Example 276, 6-[3-[[1-[2-(aminomethyl)-3,3-difluoro-allyl]-5-oxo-1,2,4-triazol-4-yl]methyl]phenyl]-1-methyl-3,4-dihydroquinolin-2-one Trifluoroacetate], the 50% inhibitory concentration (IC50) is > 100000 nM in experiment [1] (0.5 mM tyramine substrate), 3080 nM in experiment [2] (1 mM putrescine substrate), 0.5 nM on recombinant human VAP-1 (setting [4]) and 2250 nM in experiment [3] (1 mM benzylamine substrate).
Regarding `NCC(Cn1ncn(Cc2cc(-c3ccc(C(F)(F)F)nc3)cs2)c1=O)=C(F)F` [Example 148, 2-[2-(aminomethyl)-3,3-difluoro-allyl]-4-[[4-[6-(trifluoromethyl)-3-pyridyl]-2-thienyl]methyl]-1,2,4-triazol-3-one Trifluoroacetate], the concentration for half-maximal inhibition (IC50) was > 100000 nM in experiment [1] (0.5 mM tyramine), 6300 nM in experiment [2] (1 mM putrescine), 0.7 nM at recombinant human VAP-1 (setting [5]) and 8700 nM in experiment [3] (1 mM benzylamine).
Take `NCC(Cn1ncn(-c2cccc(-c3ccc(C(=O)N4CCOCC4)cc3)n2)c1=O)=C(F)F` [Example 214, 2-[2-(aminomethyl)-3,3-difluoro-allyl]-4-[6-[4-(morpholine-4-carbonyl)phenyl]-2-pyridyl]-1,2,4-triazol-3-one Trifluoroacetate]: the IC50 in experiment [1] (0.5 mM tyramine substrate) was > 100000 nM; in experiment [2] (1 mM putrescine substrate), 940 nM; at recombinant human VAP-1 (setting [4]), 1.7 nM; in experiment [3] (1 mM benzylamine substrate), > 100000 nM.
As for `NCC(Cn1ncn(Cc2ccc(C#Cc3cnc4c(c3)OCCN4)s2)c1=O)=C(F)F` [Example 167, 2-[2-(aminomethyl)-3,3-difluoro-allyl]-4-[[5-[2-(3,4-dihydro-2H-pyrido[3,2-b][1,4]oxazin-7-yl)ethynyl]-2-thienyl]methyl]-1,2,4-triazol-3-one Ditrifluoroacetate], the half-inhibitory concentration (IC50) was > 100000 nM in experiment [1] (0.5 mM tyramine), > 10000 nM in experiment [2] (1 mM putrescine), 2.1 nM at recombinant human VAP-1 (setting [5]) and 41000 nM in experiment [3] (1 mM benzylamine).
Take `CS(=O)(=O)c1cccc(-c2ccc(Cn3cnn(CC(CN)=C(F)F)c3=O)s2)c1` [Example 102, 2-[2-(aminomethyl)-3,3-difluoro-allyl]-4-[[5-(3-methylsulfonylphenyl)-2-thienyl]methyl]-1,2,4-triazol-3-one Trifluoroacetate]: the half-inhibitory concentration (IC50) in experiment [1] (0.5 mM tyramine) is > 100000 nM; in experiment [2] (1 mM putrescine), > 10000 nM; on recombinant human VAP-1 (setting [5]), 0.4 nM; in experiment [3] (1 mM benzylamine), 5400 nM.
For `NCC(Cn1ncn(-c2cccc(Br)n2)c1=O)=C(F)F` [Example 8, 2-[2-(aminomethyl)-3,3-difluoro-allyl]-4-(6-bromo-2-pyridyl)-1,2,4-triazol-3-one Trifluoroacetate], in that order: > 100000 nM, 10500 nM, 2.2 nM and > 100000 nM.
In the case of `CC(C)n1cc(-c2ccc(Cn3cnn(CC(CN)=C(F)F)c3=O)s2)cn1` [Example 184, 2-[2-(aminomethyl)-3,3-difluoro-allyl]-4-[[5-(1-isopropylpyrazol-4-yl)-2-thienyl]methyl]-1,2,4-triazol-3-one Trifluoroacetate], the half-inhibitory concentration (IC50) in experiment [1] (0.5 mM tyramine substrate) was > 100000 nM; in experiment [2] (1 mM putrescine substrate), 72000 nM; on recombinant human VAP-1 (setting [4]), 2.6 nM; in experiment [3] (1 mM benzylamine substrate), 26000 nM.
Take `CN1Cc2cc(-c3csc(Cn4cnn(CC(CN)=C(F)F)c4=O)c3)ccc2NC1=O` [Example 186, 6-[5-[[1-[2-(aminomethyl)-3,3-difluoro-allyl]-5-oxo-1,2,4-triazol-4-yl]methyl]-3-thienyl]-3-methyl-1,4-dihydroquinazolin-2-one Trifluoroacetate]: the half-maximal inhibitory concentration (IC50) in experiment [1] (0.5 mM tyramine substrate) was > 100000 nM; in experiment [2] (1 mM putrescine substrate), 25000 nM; at recombinant human VAP-1 (setting [4]), 0.5 nM; in experiment [3] (1 mM benzylamine substrate), > 100000 nM.
For the compound `CS(=O)(=O)c1ccc(-c2cnc(-n3cnn(CC(CN)=C(F)F)c3=O)cn2)cc1` [Example 89, 2-[2-(aminomethyl)-3,3-difluoro-allyl]-4-[5-(4-methylsulfonylphenyl)-pyrazin-2-yl]-1,2,4-triazol-3-one Trifluoroacetate], the IC50 was > 100000 nM in experiment [1] (0.5 mM tyramine), 2 nM in experiment [2] (1 mM putrescine), 0.6 nM on recombinant human VAP-1 (setting [5]) and 1900 nM in experiment [3] (1 mM benzylamine).
Take `COc1cc(-c2ccc(Cn3cnn(CC(CN)=C(F)F)c3=O)s2)cc(OC)c1OC` [Example 105, 2-[2-(aminomethyl)-3,3-difluoro-allyl]-4-[[5-(3,4,5-trimethoxyphenyl)-2-thienyl]methyl]-1,2,4-triazol-3-one Trifluoroacetate]: the half-maximal inhibitory concentration (IC50) in experiment [1] (0.5 mM tyramine) is > 100000 nM; in experiment [2] (1 mM putrescine) it was > 10000 nM; on recombinant human VAP-1 (setting [5]) it was 1.5 nM; in experiment [3] (1 mM benzylamine), 6500 nM.

The values are drawn from US11168073B2, “3,3-difluoroallylamines or salts thereof and pharmaceutical compositions comprising the same” (YUHAN CORPORATION, priority 2018, dated 2021).
